In patent US5270344A, “Method of treating a systemic disorder using trioxolane and diperoxide compounds” (priority 1992, dated 1993):
In brackets after ≈: the same amount, converted by molar mass. Like-named read-outs stand apart in the source and are kept apart here.

What was measured:
Candida [1] = type: cell-based, Candida spp.
Pseudomonas [2] = type: cell-based, Pseudomonas spp.
Tri. violaceum = type: cell-based, Trichophyton violaceum
Shigella [3] = type: cell-based, Shigella spp.
Kiebisella = type: cell-based, Klebsiella spp.
Shigella [4] = type: cell-based, Shigella spp.; remark: listed apart in the source
EPEC/ETEC [5] = type: cell-based, enteropathogenic/enterotoxigenic Escherichia coli
S. aureus [6] = type: cell-based, Staphylococcus aureus
Leishmania donova = system: Leishmania donova; design: species or system Balb/c mice; conditions: mouse, in vivo
Salmonella [7] = type: cell-based, Salmonella spp.
S. aureus [8] = type: cell-based, Staphylococcus aureus; remark: listed apart in the source
[9] = system: Myeloma cell line (×63 balb/c line); type: cell-based, balb/c (mouse)
EPEC/ETEC [10] = type: cell-based, enteropathogenic/enterotoxigenic Escherichia coli; remark: listed apart in the source
S. aureus [11] = type: cell-based, Staphylococcus aureus; remark: listed apart in the source
C. albicans = type: cell-based, Candida albicans
Salmonella [12] = type: cell-based, Salmonella spp.; remark: listed apart in the source
EPEC/ETEC [13] = type: cell-based, enteropathogenic/enterotoxigenic Escherichia coli; remark: listed apart in the source
Cryptococcus = type: cell-based, Cryptoccus spp.
Ph. verrucose = type: cell-based, Phialophora verrucose
Salmonella [14] = type: cell-based, Salmonella spp.; remark: listed apart in the source
Candida [15] = type: cell-based, Candida spp.; remark: listed apart in the source
Shigella [16] = type: cell-based, Shigella spp.; remark: listed apart in the source
Penicillium = type: cell-based, Penicillium spp.
Pseudomonas [17] = type: cell-based, Pseudomonas spp.; remark: listed apart in the source
Shigella [18] = type: cell-based, Shigella spp.; remark: listed apart in the source
S. epidermidis = type: cell-based, Staphylococcus epidermidis
Pseudomonas [19] = type: cell-based, Pseudomonas spp.; remark: listed apart in the source
Archromobacter = type: cell-based, Achromobacter
S. aureus [20] = type: cell-based, Staphylococcus aureus; remark: listed apart in the source
N. gonorrhoea = type: cell-based, Neisseria gonorrhoea
Leishmania major = system: Leishmania major; design: species or system balb/c mice; conditions: mouse, in vivo
E. coli = type: cell-based
[21] = system: commonly encountered microorganisms; type: cell-based, bacteria and fungi
Pseudomonas [22] = type: cell-based, Pseudomonas spp.; remark: listed apart in the source
Salmonella [23] = type: cell-based, Salmonella spp.; remark: listed apart in the source
EPEC/ETEC [24] = type: cell-based, enteropathogenic/enterotoxigenic Escherichia coli; remark: listed apart in the source
lymphocytes = system: lymphocytes; design: species or system Balb/c mice; conditions: mouse, in vivo
human spermatozoa = type: cell-based
Candida [25] = type: cell-based, Candida spp.; remark: listed apart in the source
Tri. canis = type: cell-based, Trichophyton canis
[26] = rabbit, in vivo
Method: Six healthy New Zealand White rabbits were selected for study. The rabbits' eyes were judged free of irritation prior to the study by examining with a pen light and under UV light after installation of 2% fluorescein stain. A 1% solution of the trioxolane or diperoxide derivative of linalool was prepared in isopropyl myristate. A 0.1 ml portion of this test solution was instilled into the lower conjunctival sac of one eye of each rabbit. The lids were held closed for one second. The opposite eye of each rabbit received 0.1 ml of the isopropyl myristate, as control. […] At 24, 48, and 72 hours post dosing, the eyes were examined with a pen light and re-examined with UV light following fluorescein staining of the cornea.

## CCC1OOC(CCO)O1 (stereo not drawn) [Trioxolane derivative of cis 3-hexene-1-ol]
Candida [1]
  MIC broth: 310 µg/mL (≈ 2090 µM)
Pseudomonas [2]
  MIC: 7 µg/mL (≈ 47.2 µM)
Tri. violaceum
  MIC: 150 µg/mL (≈ 1010 µM)
Shigella [3]
  MIC broth: 620 µg/mL (≈ 4180 µM)
Kiebisella
  MIC: 7 µg/mL (≈ 47.2 µM)
Shigella [4]
  MIC: 250 µg/mL (≈ 1690 µM)
EPEC/ETEC [5]
  MIC broth: 620 µg/mL (≈ 4180 µM)
S. aureus [6]
  MIC agar: 120 µg/mL (≈ 810 µM)
Leishmania donova
  Clearing parasites from the viscera: perform better than Pentostam
Salmonella [7]
  MIC agar: 7 µg/mL (≈ 47.2 µM)
S. aureus [8]
  MIC: 250 µg/mL (≈ 1690 µM)
  lowest concentration inhibiting at least one isolate: 0.031 mg/mL
[9]
  Time to kill myeloma cell line: ≤ 48 h
EPEC/ETEC [10]
  MIC agar: 31 µg/mL (≈ 209 µM)
S. aureus [11]
  MBC: 1250 µg/mL (≈ 8440 µM)
C. albicans
  MIC: 31 µg/mL (≈ 209 µM)
Salmonella [12]
  MIC broth: 150 µg/mL (≈ 1010 µM)
EPEC/ETEC [13]
  MBC: 1250 µg/mL (≈ 8440 µM)
Cryptococcus
  MIC: 15 µg/mL (≈ 101 µM)
Ph. verrucose
  MIC: 150 µg/mL (≈ 1010 µM)
Salmonella [14]
  MBC: 2500 µg/mL (≈ 16900 µM)
Candida [15]
  MBC: 1250 µg/mL (≈ 8440 µM)
Shigella [16]
  MBC: 1250 µg/mL (≈ 8440 µM)
Penicillium
  MIC: 310 µg/mL (≈ 2090 µM)
Pseudomonas [17]
  MIC agar: 7 µg/mL (≈ 47.2 µM)
Shigella [18]
  MIC agar: 7 µg/mL (≈ 47.2 µM)
S. epidermidis
  MIC: 25 µg/mL (≈ 169 µM)
  lowest concentration inhibiting at least one isolate: 0.031 mg/mL
Pseudomonas [19]
  MIC broth: 620 µg/mL (≈ 4180 µM)
Archromobacter
  MIC: 60 µg/mL (≈ 405 µM)
S. aureus [20]
  MIC broth: 620 µg/mL (≈ 4180 µM)
N. gonorrhoea
  MIC: 3.5 µg/mL (≈ 23.6 µM)
  lowest concentration inhibiting at least one isolate: 0.0019 mg/mL
Leishmania major
  Death, Day 14: No death
  General health, Day 14: Animals healthy and active
  Lesions, Day 0: Large lesions
  Lesions, Day 14: Lesions small and dry
Leishmania major; ip
  Dead, Day 14: 2 dead
  Lesions, Day 0: Large lesions
  Lesions, Day 14: Lesions scabbed
  Palate involvement, Day 14: 2
E. coli
  MIC: 120 µg/mL (≈ 810 µM)
[21]
  Activity compared with Geraniol trioxolane: more active than Geraniol trioxolane
  Activity compared with conventional drugs: more active than conventional drugs
  Effect of water on direct bioactivity: significantly reduces the direct bioactivity
Pseudomonas [22]
  MBC: 1250 µg/mL (≈ 8440 µM)
Salmonella [23]
  MIC: 7 µg/mL (≈ 47.2 µM)
EPEC/ETEC [24]
  MIC: 250 µg/mL (≈ 1690 µM)
lymphocytes
  New clones of lymphocytes in bone marrow: increase in new clones of lymphocytes
Human spermatozoa
  Time to kill human spermatozoa: ≤ 1 min
Candida [25]
  MIC agar: 31 µg/mL (≈ 209 µM)
Tri. canis
  MIC: 150 µg/mL (≈ 1010 µM)

## O.O.O.O.O.O.O.O.O.O=C([O-])[C@@H]1[O][Sb](=[O])([O][Sb]2(=[O])[O][C@H]([C@H](O)CO)[C@H](O)[C@H](C(=O)[O-])[O]2)[O][C@H]([C@H](O)CO)[C@@H]1O.[Na+].[Na+].[Na+] (some centres unmarked) [Pentostam, reference compound]
Leishmania major; ip
  Dead, Day 14: 1 dead
  Lesions, Day 0: Large lesions
  Lesions, Day 14: Large lesions breaking

## linalool trioxolane
[26]
  Ocular irritation: non-irritant to ocular tissues of the rabbit
